{"source": "ChEMBL document CHEMBL4431382", "about": "“DNA-binding studies of the natural β-carboline eudistomin U” (Bioorg Med Chem Lett, 2016)", "key": {"[1]": {"test_system": "Calf thymus DNA", "assay": "Binding affinity to calf thymus duplex DNA assessed as induction of hyperchromicity at 25 to 200 uM in pH 7 phosphate buffer by circular dichroism method", "type": "nucleic-acid assay", "settings": "Bos taurus"}, "[2]": {"test_system": "Calf thymus DNA", "assay": "Binding affinity to calf thymus duplex DNA assessed as induction of ellipticity at 350 nanometer at 25 to 200 uM in pH 7 phosphate buffer by circular dichroism method", "type": "nucleic-acid assay", "settings": "Bos taurus"}, "[3]": {"species": "Bos taurus", "assay": "Binding affinity to calf thymus GC-rich duplex DNA assessed as induction of hyperchromicity at 25 to 200 uM in pH 7 phosphate buffer by circular dichroism method"}, "[4]": {"test_system": "Calf thymus DNA", "assay": "Binding affinity to calf thymus duplex DNA assessed as melting temperature at 1 mM by differential scanning calorimetry (reference value: 51 degC)", "type": "nucleic-acid assay", "settings": "Bos taurus"}, "[5]": {"test_system": "Calf thymus DNA", "assay": "Binding affinity to calf thymus duplex DNA assessed as melting temperature at 5 mM by differential scanning calorimetry (reference value: 51 degC)", "type": "nucleic-acid assay", "settings": "Bos taurus"}, "[6]": {"test_system": "Calf thymus DNA", "assay": "Binding affinity to calf thymus duplex DNA assessed as induction of ellipticity at 349 nanometer at 25 to 200 uM in pH 7 phosphate buffer by circular dichroism method", "type": "nucleic-acid assay", "settings": "Bos taurus"}, "[7]": {"test_system": "Calf thymus DNA", "assay": "Binding affinity to calf thymus duplex DNA assessed as change in melting temperature at 50 uM in pH 7 phosphate buffer by UV-vis spectrophotometric analysis", "type": "nucleic-acid assay", "settings": "Bos taurus"}, "[8]": {"test_system": "Calf thymus DNA", "assay": "Binding affinity to calf thymus duplex DNA assessed as induction of hyperchromicity at 280 nanometer at 25 to 200 uM in pH 7 phosphate buffer by circular dichroism method", "type": "nucleic-acid assay", "settings": "Bos taurus"}, "[9]": {"test_system": "Calf thymus DNA", "assay": "Binding affinity to calf thymus duplex DNA assessed as induction of red shift in soret peak at 50 uM in pH 8.9 phosphate buffer by UV-vis spectrophotometric analysis", "type": "nucleic-acid assay", "settings": "Bos taurus"}, "[10]": {"test_system": "Calf thymus DNA", "assay": "Binding affinity to calf thymus duplex DNA assessed as induction of ellipticity at 25 to 200 uM in pH 8.9 phosphate buffer by circular dichroism method", "type": "nucleic-acid assay", "settings": "Bos taurus"}, "[11]": {"species": "Bos taurus", "assay": "Binding affinity to calf thymus AT-rich duplex DNA assessed as induction of hyperchromicity at 25 to 200 uM in pH 7 phosphate buffer by circular dichroism method"}, "[12]": {"test_system": "Calf thymus DNA", "assay": "Binding affinity to calf thymus duplex DNA assessed as induction of ellipticity at 25 to 200 uM in pH 7 phosphate buffer in presence of 0.1 M NaCl by circular dichroism method", "type": "nucleic-acid assay", "settings": "Bos taurus"}, "[13]": {"test_system": "Calf thymus DNA", "assay": "Binding affinity to calf thymus duplex DNA assessed as induction of hyperchromic shift at 257 nanometer at 50 uM in pH 5.4 phosphate buffer by UV-vis spectrophotometric analysis", "type": "nucleic-acid assay", "settings": "Bos taurus"}, "[14]": {"test_system": "Calf thymus DNA", "assay": "Binding affinity to calf thymus duplex DNA assessed as induction of hyperchromic shift at 257 nanometer at 50 uM in pH 8.9 phosphate buffer by UV-vis spectrophotometric analysis", "type": "nucleic-acid assay", "settings": "Bos taurus"}, "[15]": {"species": "Bos taurus", "assay": "Binding affinity to calf thymus GC-rich duplex DNA assessed as induction of ellipticity at 25 to 200 uM in pH 7 phosphate buffer by circular dichroism method"}, "[16]": {"test_system": "Calf thymus DNA", "assay": "Binding affinity to calf thymus duplex DNA assessed as induction of red shift at 280 nanometer at 25 to 200 uM in pH 7 phosphate buffer by circular dichroism method", "type": "nucleic-acid assay", "settings": "Bos taurus"}, "[17]": {"test_system": "Calf thymus DNA", "assay": "Binding affinity to calf thymus duplex DNA assessed as induction of hyperchromic shift at 257 nanometer at 50 uM in pH 7 phosphate buffer by UV-vis spectrophotometric analysis", "type": "nucleic-acid assay", "settings": "Bos taurus"}, "[18]": {"test_system": "Calf thymus DNA", "assay": "Binding affinity to calf thymus duplex DNA assessed as induction of ellipticity at 25 to 200 uM in pH 5.4 phosphate buffer by circular dichroism method", "type": "nucleic-acid assay", "settings": "Bos taurus"}, "[19]": {"species": "Bos taurus", "assay": "Binding affinity to calf thymus AT-rich duplex DNA assessed as induction of ellipticity at 25 to 200 uM in pH 7 phosphate buffer by circular dichroism method"}, "[20]": {"test_system": "Calf thymus DNA", "assay": "Binding affinity to calf thymus duplex DNA assessed as red shift in soret peak at 50 uM in pH 7 phosphate buffer by UV-vis spectrophotometric analysis", "type": "nucleic-acid assay", "settings": "Bos taurus"}, "[21]": {"test_system": "Calf thymus DNA", "assay": "Binding affinity to calf thymus duplex DNA assessed as increase in melting temperature by differential scanning calorimetry", "type": "nucleic-acid assay", "settings": "Bos taurus"}, "[22]": {"test_system": "Calf thymus DNA", "assay": "Binding affinity to calf thymus duplex DNA assessed as induction of red shift in soret peak at 50 uM in pH 5.4 phosphate buffer by UV-vis spectrophotometric analysis", "type": "nucleic-acid assay", "settings": "Bos taurus"}, "[23]": {"test_system": "Calf thymus DNA", "assay": "Binding affinity to calf thymus duplex DNA assessed as change in melting temperature at 2.5 uM in pH 7 phosphate buffer by UV-vis spectrophotometric analysis", "type": "nucleic-acid assay", "settings": "Bos taurus"}, "[24]": {"test_system": "Calf thymus DNA", "assay": "Binding affinity to calf thymus duplex DNA assessed as melting temperature at 0.5 mM by differential scanning calorimetry (reference value: 51 degC)", "type": "nucleic-acid assay", "settings": "Bos taurus"}, "[25]": {"test_system": "Calf thymus DNA", "assay": "Binding affinity to calf thymus duplex DNA assessed as induction of ellipticity at 2.5 to 63 uM in pH 7 phosphate buffer by circular dichroism method", "type": "nucleic-acid assay", "settings": "Bos taurus"}, "[26]": {"test_system": "Calf thymus DNA", "assay": "Binding affinity to calf thymus duplex DNA assessed as induction of hyperchromic shift at 257 nanometer at 75 uM in pH 7 phosphate buffer by UV-vis spectrophotometric analysis", "type": "nucleic-acid assay", "settings": "Bos taurus"}, "[27]": {"test_system": "Calf thymus DNA", "assay": "Binding affinity to calf thymus duplex DNA assessed as induction of red shift in soret peak at 75 uM in pH 7 phosphate buffer by UV-vis spectrophotometric analysis", "type": "nucleic-acid assay", "settings": "Bos taurus"}}, "note": "Active and inactive are the calls of the source. No cut-off for these calls is given here."}
{"smiles": "C[n+]1ccc2c([nH]c3ccccc32)c1-c1c[nH]c2ccccc12", "values": [{"measurement": "Activity", "setting": "[1]", "value": "inactive"}, {"measurement": "Activity", "setting": "[2]", "value": "inactive"}]}
{"smiles": "c1ccc2c(-c3nccc4c3[nH]c3ccccc34)c[nH]c2c1", "values": [{"measurement": "Activity", "setting": "[3]", "value": "inactive"}, {"measurement": "Tm", "setting": "[4]", "value": "56 to 67", "unit": "°C"}, {"measurement": "Tm", "setting": "[5]", "value": 67, "unit": "°C"}, {"measurement": "Activity", "setting": "[6]", "value": "Active"}, {"measurement": "ΔTm", "setting": "[7]", "value": 2.3, "unit": "°C"}, {"measurement": "Activity", "setting": "[8]", "value": "Active"}, {"measurement": "Activity", "setting": "[9]", "value": "Active"}, {"measurement": "Activity", "setting": "[10]", "value": "inactive"}, {"measurement": "Activity", "setting": "[11]", "value": "inactive"}, {"measurement": "Activity", "setting": "[12]", "value": "Active"}, {"measurement": "Activity", "setting": "[13]", "value": "Active"}, {"measurement": "Activity", "setting": "[14]", "value": "Active"}, {"measurement": "Activity", "setting": "[15]", "value": "inactive"}, {"measurement": "Activity", "setting": "[16]", "value": "Active"}, {"measurement": "Activity", "setting": "[17]", "value": "Active"}, {"measurement": "Activity", "setting": "[18]", "value": "Active"}, {"measurement": "Activity", "setting": "[19]", "value": "inactive"}, {"measurement": "Activity", "setting": "[20]", "value": 20, "unit": "nm"}, {"measurement": "Activity", "setting": "[21]", "value": "Dose-dependent effect"}, {"measurement": "Activity", "setting": "[22]", "value": "Active"}]}
{"smiles": "CC[n+]1c(-c2ccccc2)c2cc(N)ccc2c2ccc(N)cc21", "values": [{"measurement": "ΔTm", "setting": "[23]", "value": 8.9, "unit": "°C"}, {"measurement": "Tm", "setting": "[24]", "value": 75, "unit": "°C"}, {"measurement": "Activity", "setting": "[25]", "value": "Active"}]}
{"smiles": "Cc1nccc2c1[nH]c1ccccc12", "values": [{"measurement": "ΔTm", "setting": "[7]", "value": 4, "unit": "°C"}, {"measurement": "Tm", "setting": "[24]", "value": 65, "unit": "°C"}, {"measurement": "Activity", "setting": "[17]", "value": "Active"}, {"measurement": "Activity", "setting": "[20]", "value": "Active"}, {"measurement": "Activity", "setting": "[2]", "value": "inactive"}]}
{"smiles": "c1ccc2c(c1)[nH]c1cnccc12", "values": [{"measurement": "Activity", "setting": "[26]", "value": "Active"}, {"measurement": "Activity", "setting": "[27]", "value": "Active"}, {"measurement": "Activity", "setting": "[2]", "value": "inactive"}]}
